{"source": "patent US20200385789A1", "about": "“METHODS OF ASSESSING TELOMERES” (Children's Medical Research Institute, priority 2017, published 2020)", "test_system": "IMR90 primary human foetal lung fibroblasts", "test": "Telomere length by telomere fibre-FISH (TFF) after exposure of cells to inhibitors", "type": "cell-based", "conditions": "0.1 μM aphidicolin and/or 0.2 μM INK128, harvested 7 days after exposure, versus DMSO alone (untreated)", "description": "IMR90 primary human foetal lung fibroblasts were plated and 1 day later were exposed to aphidicolin, mTORi, aphidicolin+mTORi, or DMSO alone (untreated). Cells were harvested a further 7 days later and telomere length was assessed by TFF. (A) Representative imaging data of DNA fibres: Left panel—expanded view of telomere fibre fish imaging data. Center and right panels—close up of the boxes 1-5 shown on the left panel. Boxes are drawn around the telomere signals and the length in μm and kb is indicated. (B). Telomere length presented in a Tukey box plot. “+” is the mean, **=P<0.01. TFF was used to measure telomere length in cells exposed to one or both of two inhibitors: aphidicolin and an mTOR inhibitor. Cells (IMR90 primary human foetal lung fibroblasts) were plated and one day later were exposed to 0.1 μM aphidicolin, 0.2 μM of INK128 (an mTOR inhibitor), aphidicolin+INK128, or DMSO alone (untreated). Cells were harvested a further 7 days later and telomere length was assessed by TFF, essentially as described above.", "data": [{"smiles": "CC(C)n1nc(-c2ccc3oc(N)nc3c2)c2c(N)ncnc21", "note": "[INK128]", "values": [{"measurement": "Telomere length compared with untreated cells", "value": "telomere length in untreated cells was significantly greater"}]}, {"smiles": "C[C@@]1(CO)[C@H](O)CC[C@@]2(C)[C@H]1CC[C@H]1C[C@@H]3C[C@@]12CC[C@]3(O)CO", "note": "[aphidicolin]", "values": [{"measurement": "Telomere length compared with untreated cells", "value": "telomere length in untreated cells was significantly greater"}]}]}
